Assay results from patent EP3952872B1, “CARBAMOYL CYCLOHEXANE DERIVATIVES FOR TREATING AUTISM SPECTRUM DISORDER” (Richter Gedeon Nyrt., priority 2019, dated 2020).
pKi: −log10 of the molar value. “Also recorded” adds a separate entry of the source. Where two headings read alike, the source gives them in different places.

Key:
dopamine D2L receptor = dopamine D2L receptor (Homo sapiens, UniProt P14416); experiment: dopamine D2L receptor affinity; format: binding
dopamine D2S receptor = dopamine D2S receptor (Homo sapiens, UniProt P14416); experiment: dopamine D2S receptor affinity; format: binding
[1] = molecular target: T1, serotonin 5-HT2B receptor (Homo sapiens, UniProt P41595); experiment: serotonin 5-HT2B receptor affinity; format: binding
dopamine D2 receptor [2] = molecular target: T2, dopamine D2 receptor (Homo sapiens, UniProt P14416); experiment: functional activity at dopamine D2 receptor; format: biochemical; details: Compound 2
[3] = molecular target: T1, serotonin 5-HT2B receptor; experiment: functional activity at serotonin 5-HT2B receptor; format: biochemical; details: Compound 2
[4] = molecular target: T3, serotonin 5-HT1A receptor (Homo sapiens, UniProt P08908); details: Compound 2
T3 sequence (P08908 1-422): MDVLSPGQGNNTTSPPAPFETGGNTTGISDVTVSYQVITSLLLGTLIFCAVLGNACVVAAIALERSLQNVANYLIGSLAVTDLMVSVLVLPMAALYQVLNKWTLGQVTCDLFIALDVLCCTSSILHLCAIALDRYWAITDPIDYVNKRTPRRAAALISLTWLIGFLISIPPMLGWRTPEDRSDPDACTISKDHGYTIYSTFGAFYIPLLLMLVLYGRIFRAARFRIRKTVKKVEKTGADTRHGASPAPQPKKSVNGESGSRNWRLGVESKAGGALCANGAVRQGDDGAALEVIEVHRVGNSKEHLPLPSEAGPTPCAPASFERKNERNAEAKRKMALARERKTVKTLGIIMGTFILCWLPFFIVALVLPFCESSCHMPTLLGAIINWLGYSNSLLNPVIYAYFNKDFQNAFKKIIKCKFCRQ

[5] = molecular target: T3, serotonin 5-HT1A receptor; experiment: biochemical
[6] = system: prenatally valproate-treated rats; experiment: maternal deprivation-induced ultrasonic vocalization in rat pups, prenatal valproate model; format: in vivo, Wistar rats; details: acute p.o.; effect at 0.003, 0.03 and 0.1 mg/kg (0.01 mg/kg also tested); Figure 1
Method: Ultrasonic call counts are recorded for 10 min.

[7] = system: prenatally valproate-treated rats; experiment: social play behavior, prenatal valproate model; format: in vivo, Wistar rats; details: p.o. daily for 8 days; 0.003-0.1 mg/kg, significant at 0.1 mg/kg; male offspring; Figure 3
Method: Offspring are housed according to standard laboratory conditions until time of behavioral testing. Animals are housed in groups of 4 in conventional cages and maintained at 22-24°C on a standard 12 hour light/dark cycle, with food and water available ad libitum. After investigational drug treatment, offspring are examined behaviorally in tests relevant for the assessment of autistic behavior. These tests include maternal deprivation-induced ultrasonic vocalization in rat pups, social play, social preference and the open field. […] At postnatal day 30, following 8 days treatment with the test compound, prenatally VPA-treated rats are evaluated for juvenile play behavior. The test is carried out in a novel test arena with pairs of animals from the same treatment group over a 15-min trial. Animals are scored for play activity measured by duration of social play behavior. Statistical analysis employs one-way ANOVA and the post hoc Dunnett test.

[8] = system: prenatally valproate-treated rats; experiment: open field assay, prenatal valproate model; format: in vivo, Wistar rats; details: p.o. daily for 9 days, 0.003-0.1 mg/kg, male offspring
Method: Offspring are housed according to standard laboratory conditions until time of behavioral testing. Animals are housed in groups of 4 in conventional cages and maintained at 22-24°C on a standard 12 hour light/dark cycle, with food and water available ad libitum. After investigational drug treatment, offspring are examined behaviorally in tests relevant for the assessment of autistic behavior. These tests include maternal deprivation-induced ultrasonic vocalization in rat pups, social play, social preference and the open field. […] At postnatal day 31-32, animals are scored for locomotor activity and exploratory behavior in a 10-min trial in an open field test arena after 9-day oral treatment with the test compound. Activity is analysed for readouts of repetitive/stereotypic behaviors such as total distance moved and frequency of circling behavior. Statistical analysis employs one-way ANOVA and the post hoc Dunnett test.

dopamine D2 receptor [9] = molecular target: T2, dopamine D2 receptor; details: literature; cited from earlier work
[10] = molecular target: T1, serotonin 5-HT2B receptor; details: literature; cited from earlier work
[11] = molecular target: T3, serotonin 5-HT1A receptor; details: cited from earlier work

T1 sequence (P41595 whole entry): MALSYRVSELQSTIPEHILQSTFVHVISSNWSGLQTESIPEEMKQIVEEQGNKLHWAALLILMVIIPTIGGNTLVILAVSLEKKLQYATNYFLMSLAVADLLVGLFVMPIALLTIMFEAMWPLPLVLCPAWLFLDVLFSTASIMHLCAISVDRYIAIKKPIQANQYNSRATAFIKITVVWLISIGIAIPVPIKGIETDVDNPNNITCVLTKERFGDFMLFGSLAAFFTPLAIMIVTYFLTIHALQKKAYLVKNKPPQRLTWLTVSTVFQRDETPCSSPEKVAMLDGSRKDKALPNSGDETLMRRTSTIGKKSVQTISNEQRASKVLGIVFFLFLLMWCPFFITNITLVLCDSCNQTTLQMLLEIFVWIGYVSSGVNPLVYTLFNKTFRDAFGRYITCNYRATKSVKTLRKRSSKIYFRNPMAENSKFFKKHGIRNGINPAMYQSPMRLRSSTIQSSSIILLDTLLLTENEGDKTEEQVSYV
T2 sequence (P14416 whole entry): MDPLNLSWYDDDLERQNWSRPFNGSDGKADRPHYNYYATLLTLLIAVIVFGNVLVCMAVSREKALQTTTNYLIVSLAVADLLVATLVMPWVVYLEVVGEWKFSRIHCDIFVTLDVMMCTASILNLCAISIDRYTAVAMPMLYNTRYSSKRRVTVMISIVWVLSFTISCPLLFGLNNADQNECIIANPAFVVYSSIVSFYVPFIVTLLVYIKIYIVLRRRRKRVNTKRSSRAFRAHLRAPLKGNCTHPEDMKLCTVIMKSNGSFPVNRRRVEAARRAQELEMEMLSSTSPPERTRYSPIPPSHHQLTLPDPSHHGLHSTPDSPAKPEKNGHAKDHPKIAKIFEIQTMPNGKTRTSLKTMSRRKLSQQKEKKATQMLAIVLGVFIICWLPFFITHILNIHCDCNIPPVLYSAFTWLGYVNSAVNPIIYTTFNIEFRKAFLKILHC
Sequence of dopamine D2S receptor (P14416 1-414 isoform P14416-2): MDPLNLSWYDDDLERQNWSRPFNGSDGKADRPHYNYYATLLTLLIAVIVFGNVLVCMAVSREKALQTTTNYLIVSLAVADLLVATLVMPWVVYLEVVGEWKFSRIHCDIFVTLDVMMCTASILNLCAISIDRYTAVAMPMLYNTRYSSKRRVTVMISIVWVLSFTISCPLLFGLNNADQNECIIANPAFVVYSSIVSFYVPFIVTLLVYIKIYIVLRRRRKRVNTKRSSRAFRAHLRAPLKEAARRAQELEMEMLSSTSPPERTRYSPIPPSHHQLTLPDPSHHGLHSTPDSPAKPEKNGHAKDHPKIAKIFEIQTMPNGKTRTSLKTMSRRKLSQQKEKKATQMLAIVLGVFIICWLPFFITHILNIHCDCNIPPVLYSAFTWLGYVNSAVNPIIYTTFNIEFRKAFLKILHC
Sequence of dopamine D2L receptor (P14416 whole entry): as the sequence (P14416 whole entry) above

Structure (SMILES)	pKi (dopamine D2L receptor)	pKi (dopamine D2S receptor)	pKi [1]	functional character at the dopamine D2 receptor (dopamine D2 receptor [2])	functional character at the serotonin 5-HT2B receptor [3]	functional character at the serotonin 5-HT1A receptor [4]	pKi [5]	isolation-induced vocalizations (number of USV vocalizations) [6]	social play deficit (time spent playing) [7]	excessive motility / hyperactivity (distance travelled) ([8]; significant at 0.1 mg/kg, Figure 4)	excessive circling behavior (number of 360-degree turns) ([8]; significant at all doses, Figure 5)	functional character at the dopamine D2 receptor (dopamine D2 receptor [9])	functional character at the serotonin 5-HT2B receptor [10]	intrinsic activity at the serotonin 5-HT1A receptor ([11]; literature (Heusler et al. 2016; Kiss et al. 2010)) [%]	functional character at the serotonin 5-HT1A receptor ([11]; literature)
O=C(N[C@H]1CC[C@H](CCN2CCN(c3cccc(Cl)c3Cl)CC2)CC1)N1CCOCC1 [Compound 2, trans-N-(4-{2-[4-(2,3-dichloro-phenyl)-piperazine-1-yl]-ethyl}-cyclohexyl)-morpholine-4 carboxamide]	9.40	9.28	8.95	partial agonist	full antagonist	weak partial agonist	8.24								
CN(C)C(=O)N[C@H]1CC[C@H](CCN2CCN(c3cccc(Cl)c3Cl)CC2)CC1 [cariprazine, trans-N-[4-[2-[4-(2,3-dichlorophenyl)piperazin-1-yl]ethyl]cyclohexyl]-N',N'-dimethylurea]								statistically significant; also recorded: fully reversed	statistically significant; also recorded: partially nevertheless, significantly reversed	fully reversed	statistically significant; also recorded: fully reversed	partial agonist	full antagonist	38	weak partial agonist
